Laboratory results from US12594276B2, “Inhibitors of human immunodeficiency virus replication” (ViiV Healthcare UK (No.5) Limited, priority 2024, dated 2026).

Assays:
[1] = test system: recombinant NL4-3 virus (nef section replaced with Renilla luciferase gene) in MT-2 cells; assay: HIV cell culture assay (antiviral activity, luciferase readout); type: cell-based; conditions: Renilla, NL43, MT-2 cells infected for 4-5 days with recombinant NL4-3 Renilla luciferase virus
How it was run: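 EC50 was derived by median-effect fitting of Renilla luciferase signal from MT-2 cells. These cells were infected for 4–5 days with NL4-3 reporter virus (nef partly replaced by luciferase; made in 293T cells) in the presence of serially diluted compound. Activity was quantified with a live-cell luciferase substrate.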

[2] = Compound cytotoxicity, XTT-based colorimetric assay; type: cell-based; conditions: human; uninfected MT2 cells, day 4, XTT; read-out: CC50
How it was run: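 Uninfected MT2 cells, antiviral-assay protocol without virus; XTT colorimetric readout day 4; CC50 reported.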

Row | Compound | EC50 [1] | CC50 at 4 days [2]
1 | Cc1cc(C2CCC(F)(F)CC2)nc2nc([C@H](Cc3cc(F)cc(F)c3)NC(=O)Cn3nc(C4CC4)c4c3C[C@@H]3C[C@H]43)n(-c3ccc(Cl)c4c(NS(C)(=O)=O)nn(CCN5CCCC5)c34)c(=O)c12 (atropisomer, axis not shown; (P)) [Example 273, N-[(1S)-1-[(3P)-3-{4-chloro-3-methanesulfonamido-1-[2-(pyrrolidin-1-yl)ethyl]-1H-indazol-7-yl}-7-(4,4-difluorocyclohexyl)-5-methyl-4-oxo-3H,4H-pyrido[2,3-d]pyrimidin-2-yl]-2-(3,5-difluorophenyl)ethyl]-2-[(2S,4S)-9-cyclopropyl-7,8-diazatricyclo[4.3.0.0^2,^4]nona-1(6),8-dien-7-yl]acetamide] | 0.02 nM | > 50 nM
2 | CC1(F)CCN(CCn2nc(NS(C)(=O)=O)c3c(Cl)ccc(-n4c([C@H](Cc5cc(F)cc(F)c5)NC(=O)Cn5nc(C(F)F)c6c5C(F)(F)[C@@H]5C[C@H]65)nc5nc(C6CCC(F)(F)CC6)cc(C(F)F)c5c4=O)c32)CC1 (atropisomer, axis not shown; (P)) [Example 290, N-[(1S)-1-[(3P)-3-{4-chloro-1-[2-(4-fluoro-4-methylpiperidin-1-yl)ethyl]-3-methanesulfonamido-1H-indazol-7-yl}-7-(4,4-difluorocyclohexyl)-5-(difluoromethyl)-4-oxo-3H,4H-pyrido[2,3-d]pyrimidin-2-yl]-2-(3,5-difluorophenyl)ethyl]-2-[(2S,4R)-9-(difluoromethyl)-5,5-difluoro-7,8-diazatricyclo[4.3.0.0^2,^4]nona-1(6),8-dien-7-yl]acetamide] | 0.023 nM | > 50 nM
3 | Cc1cc(C2CCC(F)(F)CC2)nc2nc([C@H](Cc3cc(F)cc(F)c3)NC(=O)Cn3nc(C4CC4)c4c3C[C@@H]3C[C@H]43)n(-c3ccc(Cl)c4c(NS(C)(=O)=O)nn(CCN5CC(F)(F)C5)c34)c(=O)c12 (atropisomer, axis not shown; (P)) [Example 283, N-[(1S)-1-[(3P)-3-{4-chloro-1-[2-(3,3-difluoroazetidin-1-yl)ethyl]-3-methanesulfonamido-1H-indazol-7-yl}-7-(4,4-difluorocyclohexyl)-5-methyl-4-oxo-3H,4H-pyrido[2,3-d]pyrimidin-2-yl]-2-(3,5-difluorophenyl)ethyl]-2-[(2S,4S)-9-cyclopropyl-7,8-diazatricyclo[4.3.0.0^2,^4]nona-1(6),8-dien-7-yl]acetamide] | 0.008 nM | > 50 nM
4 | C[C@@H]1CN(Cc2cc(C3CCC(F)(F)CC3)nc3nc([C@H](Cc4cc(F)cc(F)c4)NC(=O)Cn4nc(C(F)F)c5c4C(F)(F)[C@@H]4C[C@H]54)n(-c4ccc(Cl)c5c(NS(C)(=O)=O)nn(CCN6C[C@H](F)C[C@H](F)C6)c45)c(=O)c23)C[C@H](C)O1 (atropisomer, axis not shown; (P)) [Example 526, N-[(1S)-1-[(3P)-3-(4-chloro-1-{2-[(3R,5S)-3,5-difluoropiperidin-1-yl]ethyl}-3-methanesulfonamido-1H-indazol-7-yl)-7-(4,4-difluorocyclohexyl)-5-{[(2R,6S)-2,6-dimethylmorpholin-4-yl]methyl}-4-oxo-3H,4H-pyrido[2,3-d]pyrimidin-2-yl]-2-(3,5-difluorophenyl)ethyl]-2-[(2S,4R)-9-(difluoromethyl)-5,5-difluoro-7,8-diazatricyclo[4.3.0.0^2,^4]nona-1(6),8-dien-7-yl]acetamide] | 0.014 nM | > 20 nM
5 | Cc1cc(C2(F)CCC(F)(F)CC2)nc2nc([C@H](Cc3cc(F)cc(F)c3)NC(=O)Cn3nc(C4CC4)c4c3C[C@@H]3C[C@H]43)n(-c3ccc(Cl)c4c(NS(C)(=O)=O)nn(CCN5CCO[C@@H](C(C)C)C5)c34)c(=O)c12 (atropisomer, axis not shown; (P)) [Example 581, N-[(1S)-1-[(3P)-3-(4-chloro-3-methanesulfonamido-1-{2-[(2S)-2-(propan-2-yl)morpholin-4-yl]ethyl}-1H-indazol-7-yl)-5-methyl-4-oxo-7-(1,4,4-trifluorocyclohexyl)-3H,4H-pyrido[2,3-d]pyrimidin-2-yl]-2-(3,5-difluorophenyl)ethyl]-2-[(2S,4S)-9-cyclopropyl-7,8-diazatricyclo[4.3.0.0^2,^4]nona-1(6),8-dien-7-yl]acetamide] | 0.015 nM | > 20 nM
6 | Cc1cc(C2(F)CCC(F)(F)CC2)nc2nc([C@H](Cc3cc(F)cc(F)c3)NC(=O)Cn3nc(C(F)F)c4c3C(F)(F)[C@@H]3C[C@H]43)n(-c3ccc(Cl)c4c(NS(C)(=O)=O)nn([C@@H](C)CN5C[C@H](F)C[C@H](F)C5)c34)c(=O)c12 (atropisomer, axis not shown; (P)) [Example 753, N-[(1S)-1-[(3P)-3-{4-chloro-1-[(2S)-1-[(3R,5S)-3,5-difluoropiperidin-1-yl]propan-2-yl]-3-methanesulfonamido-1H-indazol-7-yl}-5-methyl-4-oxo-7-(1,4,4-trifluorocyclohexyl)-3H,4H-pyrido[2,3-d]pyrimidin-2-yl]-2-(3,5-difluorophenyl)ethyl]-2-[(2S,4R)-9-(difluoromethyl)-5,5-difluoro-7,8-diazatricyclo[4.3.0.0^2,^4]nona-1(6),8-dien-7-yl]acetamide] | 0.026 nM | > 20 nM
7 | CS(=O)(=O)Nc1nn(CCN2C[C@H]3CC[C@@H](C2)O3)c2c(-n3c([C@H](Cc4cc(F)cc(F)c4)NC(=O)Cn4nc(C5CC5)c5c4C[C@@H]4C[C@H]54)nc4nc(C5CCC(F)(F)CC5)cc(C(F)F)c4c3=O)ccc(Cl)c12 (atropisomer, axis not shown; (P)) [Example 288, N-[(1S)-1-[(3P)-3-(4-chloro-3-methanesulfonamido-1-{2-[(1R,5S)-8-oxa-3-azabicyclo[3.2.1]octan-3-yl]ethyl}-1H-indazol-7-yl)-7-(4,4-difluorocyclohexyl)-5-(difluoromethyl)-4-oxo-3H,4H-pyrido[2,3-d]pyrimidin-2-yl]-2-(3,5-difluorophenyl)ethyl]-2-[(2S,4S)-9-cyclopropyl-7,8-diazatricyclo[4.3.0.0^2,^4]nona-1(6),8-dien-7-yl]acetamide] | 0.008 nM | > 50 nM
8 | CC1(C)CN(CCn2nc(NS(C)(=O)=O)c3c(Cl)ccc(-n4c([C@H](Cc5cc(F)cc(F)c5)NC(=O)Cn5nc(C6CC6)c6c5C[C@@H]5C[C@H]65)nc5nc(C6CCC(F)(F)CC6)cc(C(F)F)c5c4=O)c32)CC(C)(C)O1 (atropisomer, axis not shown; (P)) [Example 421, N-[(1S)-1-[(3P)-3-{4-chloro-3-methanesulfonamido-1-[2-(2,2,6,6-tetramethylmorpholin-4-yl)ethyl]-1H-indazol-7-yl}-7-(4,4-difluorocyclohexyl)-5-(difluoromethyl)-4-oxo-3H,4H-pyrido[2,3-d]pyrimidin-2-yl]-2-(3,5-difluorophenyl)ethyl]-2-[(2S,4S)-9-cyclopropyl-7,8-diazatricyclo[4.3.0.0^2,^4]nona-1(6),8-dien-7-yl]acetamide] | 0.012 nM | > 20 nM
9 | C[C@@H]1CN(Cc2cc(C3CCC(F)(F)CC3)nc3nc([C@H](Cc4cc(F)cc(F)c4)NC(=O)Cn4nc(C(F)F)c5c4C(F)(F)[C@@H]4C[C@H]54)n(-c4ccc(Cl)c5c(NS(C)(=O)=O)nn(CCN6CC(C)(C)OC(C)(C)C6)c45)c(=O)c23)C[C@H](C)O1 (atropisomer, axis not shown; (P)) [Example 529, N-[(1S)-1-[(3P)-3-{4-chloro-3-methanesulfonamido-1-[2-(2,2,6,6-tetramethylmorpholin-4-yl)ethyl]-1H-indazol-7-yl}-7-(4,4-difluorocyclohexyl)-5-{[(2R,6S)-2,6-dimethylmorpholin-4-yl]methyl}-4-oxo-3H,4H-pyrido[2,3-d]pyrimidin-2-yl]-2-(3,5-difluorophenyl)ethyl]-2-[(2S,4R)-9-(difluoromethyl)-5,5-difluoro-7,8-diazatricyclo[4.3.0.0^2,4]nona-1(6),8-dien-7-yl]acetamide] | 0.017 nM | > 1000 nM
10 | Cc1cc(C2CCC(F)(F)CC2)nc2nc([C@H](Cc3cc(F)cc(F)c3)NC(=O)Cn3nc(C(F)F)c4c3C(F)(F)[C@@H]3C[C@H]43)n(-c3ccc(Cl)c4c(NS(C)(=O)=O)nn(CCN5CCC(F)(F)CC5)c34)c(=O)c12 (atropisomer, axis not shown; (P)) [Example 128, N-[(1S)-1-[(3P)-3-{4-chloro-1-[2-(4,4-difluoropiperidin-1-yl)ethyl]-3-methanesulfonamido-1H-indazol-7-yl}-7-(4,4-difluorocyclohexyl)-5-methyl-4-oxo-3H,4H-pyrido[2,3-d]pyrimidin-2-yl]-2-(3,5-difluorophenyl)ethyl]-2-[(2S,4R)-9-(difluoromethyl)-5,5-difluoro-7,8-diazatricyclo[4.3.0.0^2,^4]nona-1(6),8-dien-7-yl]acetamide] | 0.013 nM | > 50 nM
11 | COCc1cc(C2CCC(F)(F)CC2)nc2nc([C@H](Cc3cc(F)cc(F)c3)NC(=O)Cn3nc(C(F)F)c4c3C(F)(F)[C@@H]3C[C@H]43)n(-c3ccc(Cl)c4c(NS(C)(=O)=O)nn(CCN5CCC(F)(F)CC5)c34)c(=O)c12 (atropisomer, axis not shown; (P)) [Example 676, N-[(1S)-1-[(3P)-3-{4-chloro-1-[2-(4,4-difluoropiperidin-1-yl)ethyl]-3-methanesulfonamido-1H-indazol-7-yl}-7-(4,4-difluorocyclohexyl)-5-(methoxymethyl)-4-oxo-3H,4H-pyrido[2,3-d]pyrimidin-2-yl]-2-(3,5-difluorophenyl)ethyl]-2-[(2S,4R)-9-(difluoromethyl)-5,5-difluoro-7,8-diazatricyclo[4.3.0.0^2,^4]nona-1(6),8-dien-7-yl]acetamide] | 0.011 nM | > 20 nM
